PubChem BioAssay (NCI)
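Briefly, cells in 96-well plates were exposed to five compound concentrations for 48 h, and endpoints were estimated by linear interpolation. Definition used: TGI = concentration required for complete inhibition of growth.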

Experiments:
Assay in all cases: NCI anticancer screen, dose series, 48 h
T-47D breast = tested on: T-47D breast
MCF7 breast = tested on: MCF7 breast
MDA-MB-435 = tested on: MDA-MB-435
OVCAR-8 ovarian = tested on: OVCAR-8 ovarian
HOP-92 NSCLC = tested on: HOP-92 NSCLC
SF-295 CNS = tested on: SF-295 CNS
MALME-3M melanoma = tested on: MALME-3M melanoma
SNB-75 CNS = tested on: SNB-75 CNS
SK-MEL-5 melanoma = tested on: SK-MEL-5 melanoma
SK-MEL-2 melanoma = tested on: SK-MEL-2 melanoma
UACC-62 melanoma = tested on: UACC-62 melanoma
EKVX NSCLC = tested on: EKVX NSCLC
LOX IMVI melanoma = tested on: LOX IMVI melanoma

COC(=O)C[C@H](COCc1ccccc1)NC(=O)C[C@H](COCc1ccccc1)NC(=O)C[C@H](COCc1ccccc1)NC(=O)OC(C)(C)C
TGI (T-47D breast): > 100 µM | TGI (MCF7 breast): 28.9 µM | TGI (MDA-MB-435): > 100 µM | TGI (OVCAR-8 ovarian): > 100 µM | TGI (HOP-92 NSCLC): 73.5 µM | TGI (SF-295 CNS): > 100 µM | TGI (MALME-3M melanoma): > 100 µM | TGI (SNB-75 CNS): 38 µM | TGI (SK-MEL-5 melanoma): > 100 µM | TGI (SK-MEL-2 melanoma): > 100 µM | TGI (UACC-62 melanoma): > 100 µM | TGI (EKVX NSCLC): > 100 µM | TGI (LOX IMVI melanoma): > 100 µM

CCOC(=O)/C=C(/C(=O)OCC)n1c(=O)c(C)cn(C2CC(N=[N+]=[N-])C(CO)O2)c1=O (centres undefined)
TGI (T-47D breast): > 100 µM | TGI (MCF7 breast): 50.2 µM | TGI (MDA-MB-435): > 100 µM | TGI (OVCAR-8 ovarian): > 100 µM | TGI (HOP-92 NSCLC): 76.6 µM | TGI (SF-295 CNS): > 100 µM | TGI (MALME-3M melanoma): > 100 µM | TGI (SNB-75 CNS): > 100 µM | TGI (SK-MEL-2 melanoma): 72 µM | TGI (UACC-62 melanoma): > 100 µM | TGI (EKVX NSCLC): 94 µM | TGI (LOX IMVI melanoma): > 100 µM

Oc1[nH]c2ccccc2c1N=NC(=S)N1CCCCCC1
TGI (T-47D breast): 17.6 µM | TGI (MCF7 breast): 10.9 µM | TGI (MDA-MB-435): 3.71 µM | TGI (OVCAR-8 ovarian): 2.67 µM | TGI (HOP-92 NSCLC): 6.55 µM | TGI (SF-295 CNS): 3.86 µM | TGI (MALME-3M melanoma): 3.02 µM | TGI (SNB-75 CNS): 4.34 µM | TGI (SK-MEL-5 melanoma): 2.04 µM | TGI (SK-MEL-2 melanoma): 5.72 µM | TGI (UACC-62 melanoma): 2.5 µM | TGI (EKVX NSCLC): 6.8 µM | TGI (LOX IMVI melanoma): 2.41 µM

CCC(=N\NC(N)=S)/C(C)=N/O
TGI (T-47D breast): > 100 µM | TGI (MCF7 breast): > 100 µM | TGI (MDA-MB-435): > 100 µM | TGI (OVCAR-8 ovarian): > 100 µM | TGI (HOP-92 NSCLC): > 100 µM | TGI (SF-295 CNS): > 100 µM | TGI (MALME-3M melanoma): > 100 µM | TGI (SK-MEL-5 melanoma): > 100 µM | TGI (SK-MEL-2 melanoma): > 100 µM | TGI (UACC-62 melanoma): > 100 µM | TGI (EKVX NSCLC): > 100 µM | TGI (LOX IMVI melanoma): > 100 µM

O=[N+]([O-])c1cccc2nc3ccccc3c(NCCC[N+]3([O-])CCCCC3)c12
TGI (T-47D breast): 4.9 µM | TGI (MCF7 breast): 1.99 µM | TGI (MDA-MB-435): 0.44 µM | TGI (OVCAR-8 ovarian): 13.6 µM | TGI (HOP-92 NSCLC): 0.746 µM | TGI (SF-295 CNS): 12.6 µM | TGI (MALME-3M melanoma): 0.352 µM | TGI (SNB-75 CNS): 1.4 µM | TGI (SK-MEL-5 melanoma): 1.35 µM | TGI (SK-MEL-2 melanoma): 0.354 µM | TGI (UACC-62 melanoma): 0.805 µM | TGI (EKVX NSCLC): 2.94 µM | TGI (LOX IMVI melanoma): 2.4 µM

COc1ccc(N2C(=O)C3c4[nH]c5ccccc5c4C4CCC(C(C)C)CC4C3C2=O)cc1 (centres undefined)
TGI (T-47D breast): > 100 µM | TGI (MCF7 breast): > 100 µM | TGI (MDA-MB-435): > 100 µM | TGI (OVCAR-8 ovarian): > 100 µM | TGI (HOP-92 NSCLC): > 100 µM | TGI (SF-295 CNS): > 100 µM | TGI (MALME-3M melanoma): > 100 µM | TGI (SNB-75 CNS): > 100 µM | TGI (SK-MEL-5 melanoma): > 100 µM | TGI (SK-MEL-2 melanoma): > 100 µM | TGI (UACC-62 melanoma): > 100 µM | TGI (EKVX NSCLC): > 100 µM | TGI (LOX IMVI melanoma): > 100 µM

c1ccc(C(CCN2CCCC2)c2ccccn2)cc1 (centres undefined)
TGI (T-47D breast): > 100 µM | TGI (MCF7 breast): > 100 µM | TGI (MDA-MB-435): > 100 µM | TGI (OVCAR-8 ovarian): > 100 µM | TGI (HOP-92 NSCLC): > 100 µM | TGI (SF-295 CNS): > 100 µM | TGI (MALME-3M melanoma): > 100 µM | TGI (SNB-75 CNS): > 100 µM | TGI (SK-MEL-5 melanoma): > 100 µM | TGI (SK-MEL-2 melanoma): > 100 µM | TGI (UACC-62 melanoma): > 100 µM | TGI (EKVX NSCLC): > 100 µM | TGI (LOX IMVI melanoma): > 100 µM

CC(NC(=O)C(C)C(=O)NCc1ccc(C(F)(F)F)cc1)C(N)=O (centres undefined)
TGI (T-47D breast): > 100 µM | TGI (MCF7 breast): > 100 µM | TGI (MDA-MB-435): > 100 µM | TGI (OVCAR-8 ovarian): > 100 µM | TGI (HOP-92 NSCLC): > 100 µM | TGI (SF-295 CNS): > 100 µM | TGI (MALME-3M melanoma): > 100 µM | TGI (SNB-75 CNS): > 100 µM | TGI (SK-MEL-5 melanoma): > 100 µM | TGI (SK-MEL-2 melanoma): > 100 µM | TGI (UACC-62 melanoma): > 100 µM | TGI (EKVX NSCLC): > 100 µM

CC(C)OC(=O)c1ccc(CCC2=CC(=O)C(Br)=CC2=O)cc1
TGI (T-47D breast): 45 µM | TGI (MCF7 breast): 35.2 µM | TGI (MDA-MB-435): 32.9 µM | TGI (OVCAR-8 ovarian): 32.8 µM | TGI (HOP-92 NSCLC): 24.9 µM | TGI (SF-295 CNS): 39.6 µM | TGI (MALME-3M melanoma): 29.1 µM | TGI (SNB-75 CNS): 32.5 µM | TGI (SK-MEL-5 melanoma): 25.7 µM | TGI (SK-MEL-2 melanoma): 41.7 µM | TGI (UACC-62 melanoma): 31.3 µM | TGI (EKVX NSCLC): 31.1 µM | TGI (LOX IMVI melanoma): 30.8 µM
